Data published in ChEMBL document CHEMBL1124216, “A novel class of potential central nervous system agents. 3-Phenyl-2-(1-piperazinyl)-5H-1-benzazepines” (1988).

Each compound was assayed on Mus musculus (assay: Antimaximal electroshock seizure (MES) activity in mice after peroral administration of 100 mg/kg of compound; 0/5). Conditions: route oral.
Type: functional
Compound `Cc1ccc(C2=CCc3ccccc3N=C2N2CCN(CCO)CC2)cc1.Cl.Cl` has an Activity of 0.
Compound `C1=C(c2ccccc2)C(N2CCOCC2)=Nc2ccccc2C1.Cl` has an Activity of 0.
`O=C(CCN1CCN(C2=Nc3ccc(Br)cc3CC=C2c2ccccc2)CC1)c1ccccc1` gave an Activity of 0.
`Clc1ccc(C2=CCc3ccc(Cl)cc3N=C2N2CCNCC2)cc1.O=C(O)/C=C/C(=O)O` showed an Activity of 0.
`COc1ccc(CN2CCN(C3=Nc4ccc(Br)cc4CC=C3c3ccccc3)CC2)cc1` gave an Activity of 0.
In the case of `Clc1ccc(C2=CCc3ccccc3N=C2N2CCNCC2)cc1.O=C(O)/C=C/C(=O)O`, the Activity is reported as 0.
`CN1CCN(C2=Nc3ccccc3CC=C2c2cccc(C(F)(F)F)c2)CC1.O=C(O)/C=C/C(=O)O` was tested, and the Activity was 0.
Work on `C1=C(c2ccccc2)C(N2CCN(Cc3ccccc3)CC2)=Nc2ccccc2C1` yielded an Activity of 0.
Work on `CCCc1ccc2c(c1)CC=C(c1ccccc1)C(N1CCN(C)CC1)=N2.Cl.Cl` yielded an Activity of 0.
With `CCN1CCN(C2=Nc3ccc(C(C)C)cc3CC=C2c2ccccc2)CC1.O=C(O)/C=C/C(=O)O` the Activity was 0.
Work on `Clc1ccc2c(c1)CC=C(c1ccccc1)C(N1CCN(Cc3ccccc3)CC1)=N2` yielded an Activity of 0.
`C1=C(c2ccccc2)C(N2CCNCC2)=Nc2ccccc2C1.O=C(O)/C=C/C(=O)O` gave an Activity of 0.
With `Clc1ccccc1C1=CCc2ccccc2N=C1N1CCNCC1.O=C(O)/C=C/C(=O)O` the Activity was 0.
Work on `CCCc1ccc2c(c1)CC=C(c1ccccc1)C(N1CCN(CCO)CC1)=N2.Cl.Cl` yielded an Activity of 0.
`C1=C(c2ccccc2)C(N2CCN(c3ccccc3)CC2)=Nc2ccccc2C1` showed an Activity of 0.
For `CN1CCN(C2=Nc3cc(Cl)ccc3CC=C2c2ccccc2)CC1.Cl.Cl`, the Activity was 0.
Compound `CCCc1ccc2c(c1)CC=C(c1ccccc1)C(N1CCN(CC)CC1)=N2.O=C(O)/C=C/C(=O)O` has an Activity of 0.
`CC(C)c1ccc2c(c1)CC=C(c1ccccc1)C(N1CCN(CCO)CC1)=N2.Cl.Cl` gave an Activity of 0.
For `O=C(O)/C=C/C(=O)O.OCCN1CCN(C2=Nc3ccccc3CC=C2c2cccc(C(F)(F)F)c2)CC1`, the Activity was 0.
Compound `O=C(CN1CCN(C2=Nc3ccc(Br)cc3CC=C2c2ccccc2)CC1)c1ccccc1` has an Activity of 0.

The compounds below were run on Mus musculus (assay: Antiexploratory activity (EXPL) of mice determined by an antimex activity meter, 100 mg/kg of dose was administered perorally; No inhibition). Conditions: route oral.
Type: functional
`Cc1ccc(C2=CCc3ccccc3N=C2N2CCN(CCO)CC2)cc1.Cl.Cl` gave an inhibition in vivo at 100 mg/kg of under 30%.
`C1=C(c2ccccc2)C(N2CCOCC2)=Nc2ccccc2C1.Cl` showed an inhibition in vivo at 100 mg/kg of under 30%.
For `O=C(CCN1CCN(C2=Nc3ccc(Br)cc3CC=C2c2ccccc2)CC1)c1ccccc1`, the inhibition in vivo at 100 mg/kg was under 30%.
In the case of `Clc1ccc(C2=CCc3ccc(Cl)cc3N=C2N2CCNCC2)cc1.O=C(O)/C=C/C(=O)O`, the inhibition in vivo at 100 mg/kg is reported as under 30%.
In the case of `COc1ccc(CN2CCN(C3=Nc4ccc(Br)cc4CC=C3c3ccccc3)CC2)cc1`, the inhibition in vivo at 100 mg/kg is reported as under 30%.
`Clc1ccc(C2=CCc3ccccc3N=C2N2CCNCC2)cc1.O=C(O)/C=C/C(=O)O` gave an inhibition in vivo at 100 mg/kg of under 30%.
`CN1CCN(C2=Nc3ccccc3CC=C2c2cccc(C(F)(F)F)c2)CC1.O=C(O)/C=C/C(=O)O` was tested, and the inhibition in vivo at 100 mg/kg was under 30%.
With `C1=C(c2ccccc2)C(N2CCN(Cc3ccccc3)CC2)=Nc2ccccc2C1` the inhibition in vivo at 100 mg/kg was under 30%.
For `CCCc1ccc2c(c1)CC=C(c1ccccc1)C(N1CCN(C)CC1)=N2.Cl.Cl`, the inhibition in vivo at 100 mg/kg was under 30%.
In the case of `CCN1CCN(C2=Nc3ccc(C(C)C)cc3CC=C2c2ccccc2)CC1.O=C(O)/C=C/C(=O)O`, the inhibition in vivo at 100 mg/kg is reported as under 30%.
With `Clc1ccc2c(c1)CC=C(c1ccccc1)C(N1CCN(Cc3ccccc3)CC1)=N2` the inhibition in vivo at 100 mg/kg was under 30%.
For `C1=C(c2ccccc2)C(N2CCNCC2)=Nc2ccccc2C1.O=C(O)/C=C/C(=O)O`, the inhibition in vivo at 100 mg/kg was under 30%.
`Clc1ccccc1C1=CCc2ccccc2N=C1N1CCNCC1.O=C(O)/C=C/C(=O)O` gave an inhibition in vivo at 100 mg/kg of under 30%.
Compound `CCCc1ccc2c(c1)CC=C(c1ccccc1)C(N1CCN(CCO)CC1)=N2.Cl.Cl` has an inhibition in vivo at 100 mg/kg of under 30%.
Work on `C1=C(c2ccccc2)C(N2CCN(c3ccccc3)CC2)=Nc2ccccc2C1` yielded an inhibition in vivo at 100 mg/kg of under 30%.
With `CN1CCN(C2=Nc3cc(Cl)ccc3CC=C2c2ccccc2)CC1.Cl.Cl` the inhibition in vivo at 100 mg/kg was under 30%.
`CCCc1ccc2c(c1)CC=C(c1ccccc1)C(N1CCN(CC)CC1)=N2.O=C(O)/C=C/C(=O)O` gave an inhibition in vivo at 100 mg/kg of under 30%.
`CC(C)c1ccc2c(c1)CC=C(c1ccccc1)C(N1CCN(CCO)CC1)=N2.Cl.Cl` showed an inhibition in vivo at 100 mg/kg of under 30%.
Compound `O=C(O)/C=C/C(=O)O.OCCN1CCN(C2=Nc3ccccc3CC=C2c2cccc(C(F)(F)F)c2)CC1` has an inhibition in vivo at 100 mg/kg of under 30%.
Compound `O=C(CN1CCN(C2=Nc3ccc(Br)cc3CC=C2c2ccccc2)CC1)c1ccccc1` has an inhibition in vivo at 100 mg/kg of under 30%.

What follows are compounds tested on Mus musculus (assay: Antitremorine activity(TRM) of mice after peroral administration of 100 mg/kg of compound; Moderate inhibition (51-71%)). Conditions: route oral.
Type: functional
`Clc1ccc(C2=CCc3ccc(Cl)cc3N=C2N2CCNCC2)cc1.O=C(O)/C=C/C(=O)O` gave an inhibition in vivo at 100 mg/kg of 51%.
`CCCc1ccc2c(c1)CC=C(c1ccccc1)C(N1CCN(CCO)CC1)=N2.Cl.Cl` was tested, and the inhibition in vivo at 100 mg/kg was 51%.
Compound `CN1CCN(C2=Nc3cc(Cl)ccc3CC=C2c2ccccc2)CC1.Cl.Cl` has an inhibition in vivo at 100 mg/kg of 51%.

The compounds below were run on Mus musculus (assay: Antitremorine activity(TRM) of mice after peroral administration of 100 mg/kg of compound; Slight inhibition (31-50%)). Conditions: route oral.
Type: functional
Work on `CCN1CCN(C2=Nc3ccc(C(C)C)cc3CC=C2c2ccccc2)CC1.O=C(O)/C=C/C(=O)O` yielded an inhibition in vivo at 100 mg/kg of 31%.

What follows are compounds tested on Mus musculus (assay: Antireserpine activity (RES) of mice after peroral administration of 100 mg/kg of compound; No inhibition). Conditions: route oral.
Type: functional
`Cc1ccc(C2=CCc3ccccc3N=C2N2CCN(CCO)CC2)cc1.Cl.Cl` was tested, and the inhibition in vivo at 100 mg/kg was under 30%.
For `C1=C(c2ccccc2)C(N2CCOCC2)=Nc2ccccc2C1.Cl`, the inhibition in vivo at 100 mg/kg was under 30%.
`O=C(CCN1CCN(C2=Nc3ccc(Br)cc3CC=C2c2ccccc2)CC1)c1ccccc1` was tested, and the inhibition in vivo at 100 mg/kg was under 30%.
With `COc1ccc(CN2CCN(C3=Nc4ccc(Br)cc4CC=C3c3ccccc3)CC2)cc1` the inhibition in vivo at 100 mg/kg was under 30%.
In the case of `Clc1ccc(C2=CCc3ccccc3N=C2N2CCNCC2)cc1.O=C(O)/C=C/C(=O)O`, the inhibition in vivo at 100 mg/kg is reported as under 30%.
`CCCc1ccc2c(c1)CC=C(c1ccccc1)C(N1CCN(C)CC1)=N2.Cl.Cl` was tested, and the inhibition in vivo at 100 mg/kg was under 30%.
Compound `CCN1CCN(C2=Nc3ccc(C(C)C)cc3CC=C2c2ccccc2)CC1.O=C(O)/C=C/C(=O)O` has an inhibition in vivo at 100 mg/kg of under 30%.
For `C1=C(c2ccccc2)C(N2CCNCC2)=Nc2ccccc2C1.O=C(O)/C=C/C(=O)O`, the inhibition in vivo at 100 mg/kg was under 30%.
`Clc1ccccc1C1=CCc2ccccc2N=C1N1CCNCC1.O=C(O)/C=C/C(=O)O` gave an inhibition in vivo at 100 mg/kg of under 30%.
In the case of `CCCc1ccc2c(c1)CC=C(c1ccccc1)C(N1CCN(CCO)CC1)=N2.Cl.Cl`, the inhibition in vivo at 100 mg/kg is reported as under 30%.
`C1=C(c2ccccc2)C(N2CCN(c3ccccc3)CC2)=Nc2ccccc2C1` gave an inhibition in vivo at 100 mg/kg of under 30%.
For `CN1CCN(C2=Nc3cc(Cl)ccc3CC=C2c2ccccc2)CC1.Cl.Cl`, the inhibition in vivo at 100 mg/kg was under 30%.
`CCCc1ccc2c(c1)CC=C(c1ccccc1)C(N1CCN(CC)CC1)=N2.O=C(O)/C=C/C(=O)O` was tested, and the inhibition in vivo at 100 mg/kg was under 30%.
Work on `CC(C)c1ccc2c(c1)CC=C(c1ccccc1)C(N1CCN(CCO)CC1)=N2.Cl.Cl` yielded an inhibition in vivo at 100 mg/kg of under 30%.
Work on `O=C(CN1CCN(C2=Nc3ccc(Br)cc3CC=C2c2ccccc2)CC1)c1ccccc1` yielded an inhibition in vivo at 100 mg/kg of under 30%.

Each compound was assayed on Mus musculus (assay: Antireserpine activity (RES) of mice after peroral administration of 100 mg/kg of compound; Slight inhibition (31-50%)). Conditions: route oral.
Type: functional
For `Clc1ccc(C2=CCc3ccc(Cl)cc3N=C2N2CCNCC2)cc1.O=C(O)/C=C/C(=O)O`, the inhibition in vivo at 100 mg/kg was 31%.
With `Clc1ccc2c(c1)CC=C(c1ccccc1)C(N1CCN(Cc3ccccc3)CC1)=N2` the inhibition in vivo at 100 mg/kg was 31%.

These compounds were tested on Mus musculus (assay: Antitremorine activity(TRM) of mice after peroral administration of 100 mg/kg of compound; No inhibition). Conditions: route oral.
Type: functional
Compound `Cc1ccc(C2=CCc3ccccc3N=C2N2CCN(CCO)CC2)cc1.Cl.Cl` has an inhibition in vivo at 100 mg/kg of under 30%.
Work on `C1=C(c2ccccc2)C(N2CCOCC2)=Nc2ccccc2C1.Cl` yielded an inhibition in vivo at 100 mg/kg of under 30%.
Compound `O=C(CCN1CCN(C2=Nc3ccc(Br)cc3CC=C2c2ccccc2)CC1)c1ccccc1` has an inhibition in vivo at 100 mg/kg of under 30%.
`COc1ccc(CN2CCN(C3=Nc4ccc(Br)cc4CC=C3c3ccccc3)CC2)cc1` showed an inhibition in vivo at 100 mg/kg of under 30%.
`Clc1ccc(C2=CCc3ccccc3N=C2N2CCNCC2)cc1.O=C(O)/C=C/C(=O)O` gave an inhibition in vivo at 100 mg/kg of under 30%.
`CN1CCN(C2=Nc3ccccc3CC=C2c2cccc(C(F)(F)F)c2)CC1.O=C(O)/C=C/C(=O)O` was tested, and the inhibition in vivo at 100 mg/kg was under 30%.
With `C1=C(c2ccccc2)C(N2CCN(Cc3ccccc3)CC2)=Nc2ccccc2C1` the inhibition in vivo at 100 mg/kg was under 30%.
`Clc1ccc2c(c1)CC=C(c1ccccc1)C(N1CCN(Cc3ccccc3)CC1)=N2` was tested, and the inhibition in vivo at 100 mg/kg was under 30%.
`C1=C(c2ccccc2)C(N2CCNCC2)=Nc2ccccc2C1.O=C(O)/C=C/C(=O)O` was tested, and the inhibition in vivo at 100 mg/kg was under 30%.
`Clc1ccccc1C1=CCc2ccccc2N=C1N1CCNCC1.O=C(O)/C=C/C(=O)O` was tested, and the inhibition in vivo at 100 mg/kg was under 30%.
In the case of `C1=C(c2ccccc2)C(N2CCN(c3ccccc3)CC2)=Nc2ccccc2C1`, the inhibition in vivo at 100 mg/kg is reported as under 30%.
Work on `CCCc1ccc2c(c1)CC=C(c1ccccc1)C(N1CCN(CC)CC1)=N2.O=C(O)/C=C/C(=O)O` yielded an inhibition in vivo at 100 mg/kg of under 30%.
With `CC(C)c1ccc2c(c1)CC=C(c1ccccc1)C(N1CCN(CCO)CC1)=N2.Cl.Cl` the inhibition in vivo at 100 mg/kg was under 30%.
`O=C(O)/C=C/C(=O)O.OCCN1CCN(C2=Nc3ccccc3CC=C2c2cccc(C(F)(F)F)c2)CC1` gave an inhibition in vivo at 100 mg/kg of under 30%.
`O=C(CN1CCN(C2=Nc3ccc(Br)cc3CC=C2c2ccccc2)CC1)c1ccccc1` gave an inhibition in vivo at 100 mg/kg of under 30%.
